{
  "source": "patent US20200247855A1",
  "about": "“THERAPY AND DIAGNOSTICS” (OXFORD UNIVERSITY INNOVATION LIMITED, priority 2017, published 2020)",
  "molecular_target": "T1, human CCL8-647 (Homo sapiens, UniProt P80075)",
  "T1 construct": "purchased Almac (UK)",
  "T1 sequence (P80075 24-99)": "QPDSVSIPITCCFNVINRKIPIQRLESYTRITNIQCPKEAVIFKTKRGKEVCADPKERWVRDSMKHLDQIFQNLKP",
  "experiment": "Fluorescent chemokine binding to THP-1 cells (flow cytometry)",
  "format": "cell-based",
  "conditions": "FIG. 16 A, B",
  "description": "P672_PEP_SCRAM (C-terminally amidated)=[…] FIG. 16(A). […] 60 μM (+) P672_PEP or P672_PEP_SCRAM were incubated with CCL8-647 (2.5 nM) for half an hour at 37° C. prior to adding to THP-1 cells and incubating everything together for a further half an hour at 37° C. Cells were then analysed using fluorescence assisted cell sorting (10,000 cells analysed) and MFI recorded. Experiment carried out in triplicate where each data point is the average of one experiment carried out in technical triplicate. Mean with SEM shown and statistical significance was determined using one-way ANOVA with Sidak's correction for multiple comparisons using Graph Pad Prism 6. ****=P<0.00005, ns=not significant.\nData are shown as mean of two technical replicates. […] Curves were fitted with 4 parameters to estimate IC50.\nFluorescent chemokine (conjugated to AlexaFluor-647) binding to THP-1 cells results in an increase in the cellular fluorescence intensity, which is quantitatively measured using flow cytometry.\nFluorescent Chemokine/Receptor Blocking Assay CCL8-647 (2.5 nM, final) or […] (1.2 nM, final) was incubated for 30 minutes with varying doses of peptide (0-100 μM, final concentration) in 50 μL assay buffer (RPMI-1640+L-glutamine (4 mM)+10% heat treated fetal bovine serum+0.2% DMSO) at 37° C. […]",
  "note": "No end group written: not given here.",
  "data": [
    {"substance": "EDEDYEDFFKPVTAYF-NH2 [BK1.1]", "values": [
      {"measurement": "Inhibition of CCL8-647 binding to THP-1 cells", "value": "could inhibit CCL8-647 binding to THP-1 cells"}
    ]}
  ]
}
